For assay [1], the target named is T1, hGLP-1R (Homo sapiens, UniProt P43220).
T1 construct: host or cells: HEK293T, transient transfection
Put plainly: Ligand-induced Mini-Gαs recruitment to hGLP-1R-GFP (BRET) in HEK293T cells. The assay is classed as cell-based. As to conditions: HEK293 cells transfected with human GLP-1R; dose response, Fig. 1a; in words. The procedure: (§1) HEK293T cells (700,000 per well) were seeded in six-well plates and incubated to 70% confluency in DMEM (10% FBS, 1% Pen/Strep). Twenty-four hours following seeding, transient transfections were performed using Lipofectamine 2000 (catalogue no. 11668019, Invitrogen) according to the manufacturer’s protocol without including additional transformation carrier DNA.
(§2) Twenty-four hours following transfection, HEK293T cells or MIN6 cells were washed with PBS and resuspended in FluoroBrite phenol red-free complete media (catalogue no. A1896701, Life Technologies) containing 5% FBS and 2 mM of L-glutamine (catalogue no. 25030081, Life Technologies). 100,000 cells per well were plated into poly-D-lysine-coated (catalogue no. P6403, Sigma-Aldrich) 96-well white polystyrene LumiNunc plates (catalogue no. 10072151, Thermo Fisher Scientific). After 24 h, the media was replaced with PBS (catalogue no. 10010056, Gibco) containing 10 μM of coelenterazine-h (catalogue no. S2011, Promega) or 1:500 dilution of NanoGlo (catalogue no. N1110, Promega). BRET measurements were taken every 30 s–2 min using a PHERAstar FS multi-mode microplate reader. […] The resulting ligand-specific ratiometric BRET signals were normalized to vehicle producing the ‘ligand-induced BRET ratio’[37], followed by an additional normalization step to well-specific baseline readings.

Assay [2] concerns the target T1, hGLP-1R. Put plainly: Ligand-induced hGLP-1R-Rluc8 internalization (loss of BRET with Venus-KRAS) in HEK293T cells. Conditions: HEK293 cells transfected with human GLP-1R; dose response, Fig. 1c; in words. The assay is classed as cell-based. The procedure: as §1, §2
(BRET reads energy transfer from a luciferase to a nearby fluorophore.)

Assay [3] concerns the target T1, hGLP-1R. Put plainly: Ligand-induced hGLP-1R-GFP Mini-Gαs recruitment (BRET) in mouse MIN6 β-cells. The assay is classed as cell-based. As to conditions: Fig. 1d, in words. The procedure:
as §1, §2

Assay [4] relates to hGLP-1R. Description: Ligand-induced cAMP production (BRET) in mouse MIN6 β-cells. The assay is classed as cell-based, human. Conditions: Fig. 1e, in words. The procedure: as §1, §2
For assay [5], the target named is T1, hGLP-1R. Description: Ligand-induced hGLP-1R-Rluc8 internalization (BRET) in mouse MIN6 β-cells. The assay is classed as cell-based. Conditions: Fig. 1f, in words. The procedure: as §1, §2
Assay [6] concerns C57BL/6J DIO mice. Description: Chronic high-dose treatment of DIO mice (14 days, 50 nmol/kg/day): body weight, food intake, fat and lean mass (Fig. 2a–d). Conditions: individual mice. The assay is classed as in vivo, mouse. The text has this: Glp1r^−/− mice were kindly provided by D. Drucker (University of Toronto, Canada). All wildtype and knockout mice used in our studies were in-house bred on a C57BL/6J background. […] At the beginning of each experiment, mice were equally distributed into experimental groups according to their body weight and body composition. All animal studies were approved by the State of Bavaria, Germany, or the Insitutional Animal Care and Use Committee of the University of Cincinnati, OH, USA and conducted on the basis of the underlying animal welfare law of the respective countries. Compounds were dissolved in PBS and were s.c. administered with a volume of 5 μl g^−1 body weight in the indicated doses between 15:00 and 16:00.
Fat and lean tissue mass were measured via nuclear magnetic resonance technology (EchoMRI).

Assay [7] deals with C57BL/6J DIO mice. Put plainly: i.p. insulin tolerance test in DIO mice (Fig. 2g,h; Extended Data Fig. 3a,b). The assay is classed as in vivo, mouse. More on the design: unit not given here. Conditions: for AOC: ITT, Suppl. Fig. 3b. The procedure: Glucose tolerance was assessed in 6 h fasted mice after i.p injection of 1.75 g glucose per kg body weight (DIO mice). Insulin tolerance was assessed in 6 h fasted mice after i.p. injection of either 0.75 U Insulin per […] body weight (DIO mice) or 1 U Insulin per […] body weight (db/db mice) (Humalog, Eli Lilly). Tail vein blood glucose was subsequently measured using a handheld glucometer (TheraSense Freestyle) at baseline and after 15, 30, 60 and 120 min.

Assay [8] concerns DIO mice. Description: In vivo glucose-stimulated insulin secretion in DIO mice (Fig. 2i). More on the design: species or system mouse. As to conditions: Figure 2i, individual mice.

Several values for one entry are separate records, joined by “and”; a condition that tells them apart may be missing. Equal entries are not always repeated.

T1 sequence (P43220 24-463): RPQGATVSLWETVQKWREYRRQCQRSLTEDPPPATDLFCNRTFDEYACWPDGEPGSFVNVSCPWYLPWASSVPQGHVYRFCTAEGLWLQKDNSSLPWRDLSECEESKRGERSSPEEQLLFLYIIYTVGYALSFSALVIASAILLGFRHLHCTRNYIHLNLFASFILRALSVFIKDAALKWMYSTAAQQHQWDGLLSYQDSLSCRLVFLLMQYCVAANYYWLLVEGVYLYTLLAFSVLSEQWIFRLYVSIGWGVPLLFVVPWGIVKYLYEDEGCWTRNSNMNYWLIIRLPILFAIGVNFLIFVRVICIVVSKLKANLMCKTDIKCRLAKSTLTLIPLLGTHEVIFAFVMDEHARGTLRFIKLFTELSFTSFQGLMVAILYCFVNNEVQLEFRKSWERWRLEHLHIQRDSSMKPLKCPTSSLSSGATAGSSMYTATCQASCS

In the case of `CCO[C@@H](Cc1ccc(OCCc2ccc(OS(C)(=O)=O)cc2)cc1)C(=O)O` [tesaglitazar, (S)-2-ethoxy-3-(4-(4-((methylsulfonyl)oxy)phenethoxy)phenyl) propanoic acid], the “GLP-1R-mediated Gαs recruitment” value in assay [1] and in assay [3] was “had no effect” throughout. Moreover, the GLP-1R internalization result in assay [2] and in assay [5] was “had no effect” each time. The cAMP production entry in assay [4] is recorded as “had no effect”. For the same compound, the “delta Fat mass (%)” value in assay [6] (Figure 2c, sheet notes an outlier based on grubbs test) is -21.91% and -19.00% and -17.53% and -14.42% and -13.51% and -9.80% and -21.20% and -17.11%. Further, the “delta lean mass (%)” value in assay [6] (Figure 2d) was -3.73% and -4.62% and -4.21% and -6.43% and -3.83% and -4.53% and -3.02% and -3.39%. Further, the AUC in assay [7] (DIO mice, Figure 2h, AUC of the insulin tolerance test, individual mice, one conjugate mouse missinjected) is 78.83 and 85.05 and 79.73 and 58.88 and 108.1 and 99.38 and 88.2 and 80.48. The AOC was 151.5 in assay [7] (animal 1 of the group); 33 in assay [7] (animal 2 of the group); 29.64 in assay [7] (animal 3 of the group); 82.26 in assay [7] (animal 4 of the group); 109.5 in assay [7] (animal 5 of the group); 165 in assay [7] (animal 6 of the group). Also, the AOC in assay [7] (animal 7 of the group) is on record as 167; in assay [7] (animal 8 of the group), 172. In assay [8], the GSIS was 0.684 and 1.33 and 1.611 and 0.796 and 0.457 and 0.687 and 1.335 and 1.19.

The values above are taken from PMC9398908, “GLP-1-mediated delivery of tesaglitazar improves obesity and glucose metabolism in male mice” (Nature Metabolism, 2022).
